Test results reported in publication PMC6270163, “Anti-inflammatory Lignans from the Fruits of Acanthopanax sessiliflorus” (Molecules, 2012).
Where two headings read alike, the source gives them in different places.

What was measured:
[1] = test system: LPS-induced NO production in RAW 264.7 macrophage cells; assay: Inhibition of LPS-induced NO production (nitrite, Griess reagent); details: pretreated 1 h with compounds, then LPS (1 μg/mL) for 24 h, mean ± SD, three independent experiments
Protocol: Assays for NO production and cell viability were carried out as previously described [23]. […] The plates were pretreated with various concentrations of samples for 30 min and incubated with LPS (1 μg/mL) for 24 h. The amount of NO was determined by the nitrite concentration in cultured RAW264.7 macrophage supernatants using the Griess reagent. The cell viability was evaluated by MTT reduction.

in vitro = details: mouse
RAW 264.7 macrophages = assay: Cell viability by MTT reduction; details: for Cell toxicity / influence on cell viability (in words): RAW 264.7 cells treated with compounds
[2] = Mus musculus, RAW264.7, read-out: IC50 (concentration that caused 50% inhibition of NO production), LPS-activated RAW 264.7 macrophage cells
[3] = read-out: IC50 (concentration that caused 50% inhibition of NO production), LPS-activated RAW 264.7 macrophage cells

Compound | IC50 [1, 2] [µM] | IC50 [1, 3] [µM] | viability at 24 h, 100 µM (in vitro) [%] | Cell viability (%) (RAW 264.7 macrophages; RAW 264.7 cells, at a concentration of 100 μM, MTT reduction, mean ± SD, three independent experiments) | viability at 24 h, 100 µM (in vitro; RAW 264.7 macrophages) [%] | Cell toxicity / influence on cell viability (in words) (RAW 264.7 macrophages)
c1cc2c(cc1[C@@H]1OCC3C1CO[C@H]3c1ccc3c(c1)OCO3)OCO2 (single isomer, unassigned; (-)) [Compound 2, (−)-sesamin] | 49.9 to 65.1 | 38.9 ± 2.86 | 95.5 ± 2.01 |  |  | 
N=C(N)NN [Aminoguanidine, reference compound] |  | 6.51 ± 1.15 |  | 84.61 ± 2.50 |  | 
COc1cc(OC)cc([C@@H](O)[C@H]2COC[C@@H]2Cc2ccc(O)c(O)c2)c1 [Compound 1, 3-(3',4'-dihydroxybenzyl)-4-[(7S),7-hydroxy-3,5-dimethoxybenzyl]tetrahydrofuran] | 49.9 ± 6.56 |  |  |  | 84.8 ± 2.71 | 
O=C1OC[C@H](Cc2ccc3c(c2)OCO3)[C@H]1Cc1ccc2c(c1)OCO2 [Compound 3, (−)-hinokinin] | 21.6 ± 1.19 |  |  |  | 50.2 ± 1.55 | Some cell toxicity was observed
COc1cc([C@H]2OC[C@@H]3[C@H]2CO[C@H]3c2ccc3c(c2)OCO3)ccc1O [Compound 6, (+)-piperitol] | 22.3 ± 1.1 |  |  |  | 84.1 ± 2.46 | 
COc1cc([C@H]2OC[C@H]3[C@@H]2CO[C@@H]3c2ccc3c(c2)OCO3)ccc1O [Compound 7, (+)-xanthoxylol] | 27.6 | 21.6 ± 1.28 |  |  | 88.4 ± 3.71 | 
COc1cc([C@H]2OC[C@H]3[C@@H]2CO[C@@H]3c2cc(OC)c(O[C@@H]3O[C@H](CO)[C@@H](O)[C@H](O)[C@H]3O)c(OC)c2)cc(OC)c1O [Compound 8, acanthoside B] |  |  | 82.4 ± 1.27 |  |  | 
COc1cc([C@H]2OC[C@H]3[C@@H]2CO[C@@H]3c2ccc3c(c2)OCO3)ccc1O[C@@H]1O[C@H](CO)[C@@H](O)[C@H](O)[C@H]1O [Compound 9, simlexoside] | 53 ± 2.75 |  |  |  | 54.5 ± 2.21 | Some cell toxicity was observed
(+)-pinoresinol [Compound 5] |  | 10.3 ± 2.37 |  |  |  | 
